Numbers after ± are expanded uncertainties.

Series [1] is described as follows: mn = molality of the nth substance listed, in mol/kg. The following applies: 101 kPa, Liquid, Vibrating tube method, m2 = 0.
The conditions of series [2]: 101 kPa, Liquid, Vibrating tube method.

As usually defined, the mass density is mass per unit of volume. As to `CC(=O)N(C)C` [N,N-dimethylethanamide] + O=S(=O)([O-])C(F)(F)F.[Na+], the mass density in series [1] (283.15 K) is 950.04 ± 0.3 kg/m3; in series [1] (293.15 K) it was 940.83 ± 0.3 kg/m3; in series [1] (298.15 K), 936.22 ± 0.3 kg/m3; in series [1] (303.15 K), 931.61 ± 0.3 kg/m3; in series [1] (313.15 K), 922.35 ± 0.3 kg/m3; in series [1] (323.15 K), 913.08 ± 0.3 kg/m3. Also, in series [1] (333.15 K), the mass density was 903.76 ± 0.3 kg/m3.
On to `CC(=O)N(C)C` [N,N-dimethylethanamide], for which the mass density in series [2] (283.15 K) came out at 950.04 ± 0.3 kg/m3; in series [2] (293.15 K), 940.83 ± 0.3 kg/m3; in series [2] (298.15 K), 936.22 ± 0.3 kg/m3; in series [2] (303.15 K), 931.61 ± 0.3 kg/m3; in series [2] (313.15 K), 922.35 ± 0.3 kg/m3; in series [2] (323.15 K), 913.08 ± 0.3 kg/m3. For the same compound, the mass density in series [2] (333.15 K) is given as 903.76 ± 0.3 kg/m3.
On to `CN(C)C=O` [dimethylformamide], for which the mass density in series [2] (283.15 K) is reported as 958.07 ± 0.3 kg/m3; in series [2] (293.15 K) it was 948.56 ± 0.3 kg/m3; in series [2] (298.15 K), 943.79 ± 0.31 kg/m3; in series [2] (303.15 K) it was 939.01 ± 0.31 kg/m3; in series [2] (313.15 K), 929.43 ± 0.31 kg/m3; in series [2] (323.15 K) it was 919.81 ± 0.31 kg/m3. For the same compound, the mass density in series [2] (333.15 K) came out at 910.11 ± 0.31 kg/m3.
For the compound `CN(C)C=O` [dimethylformamide] + O=S(=O)([O-])C(F)(F)F.[Na+], the mass density worked out at 958.07 ± 0.3 kg/m3 in series [1] (283.15 K); 948.56 ± 0.3 kg/m3 in series [1] (293.15 K); 943.79 ± 0.31 kg/m3 in series [1] (298.15 K); 939.01 ± 0.31 kg/m3 in series [1] (303.15 K); 929.43 ± 0.31 kg/m3 in series [1] (313.15 K); 919.81 ± 0.31 kg/m3 in series [1] (323.15 K). Besides, in series [1] (333.15 K), the mass density is 910.11 ± 0.31 kg/m3.

The record behind these values is the NIST ThermoML archive (doi:10.1016/j.jct.2012.11.004).
